Tests used:
Test in all cases: cell proliferation inhibitory activity, WST-8 (Test Example 3)
Type in all cases: cell-based
[1] = test system: H226 (Lung squamous cell carcinoma cell line); conditions: Homo sapiens, NCI-H226, 48 h; H226, 2 days with compound, WST-8, Table 3
Method: (§1) Compounds RS8 to RS10 obtained in Synthesis Examples 8 to 10 were examined for cell proliferation inhibitory activity against human cultured cancer cells. The cancer cells used were two human lung adenocarcinoma cell lines and one human lung squamous cell carcinoma cell line. The cancer cells of each type were seeded on a 96-well plate and cultured for 2 days, and cultured for 2 days with addition of serially diluted products of the compounds, and the cell proliferation was then measured by colorimetry with a water-soluble tetrazolium salt (WST-8). Thereafter, 50% cell proliferation inhibitory concentrations (GI50) were calculated from the cell proliferation curves.

[2] = test system: H1650 (Lung adenocarcinoma cell line); conditions: Homo sapiens, NCI-H1650, 48 h; H1650, 2 days with compound, WST-8, Table 3
Method: as §1

[3] = test system: H2228 (Lung adenocarcinoma cell line); conditions: Homo sapiens, NCI-H2228, 48 h; H2228, 2 days with compound, WST-8, Table 3
Method: as §1

SMILES: C[C@@H]1[C@@H](O)[C@H](C)C[C@@H]2C=C[C@H](C)[C@H](/C=C/C=C(\Br)C(=O)OCc3ccccn3)[C@@H]12 [RS10, Pyridin-2″-ylmethyl (2Z,4E)-2-bromo-5-((1′S,2′S,4′aR,6′R,7′S,8′S,8′aS)-7′-hydroxy-2′,6′,8′-trimethyl-1′,2′,4′a,5′,6′,7′,8′,8′a-octahydronaphthalen-1′-yl)penta-2,4-dienoate]
- GI50 [1]: 300 nM
- GI50 [2]: 500 nM
- GI50 [3]: 700 nM

Source: patent US12570618B2, “Compound, production method therefor, and pharmaceutical composition” (TOKYO UNIVERSITY OF SCIENCE FOUNDATION, priority 2021, dated 2026)
